Assay results taken from the pKa sets of Baltruschat and Czodrowski (2020).

conditions: basic group

Row | Structure (SMILES) | pKa
1 | CNC[C@H](O)c1cccc(O)c1 | 8.77
2 | OCCc1cnc(P(c2[nH]c(CCO)c[nH+]2)c2[nH]c(CCO)c[nH+]2)[nH]1 | 5.75
3 | Nc1cccc2cccc([N+](=O)[O-])c12 | 2.79
4 | C=CCC(C)(CN(CC)CC)OC(=O)CC(C)C (configuration not stated) | 8.1
5 | c1ncc2c(n1)NCCN2 | 6.63
6 | Cc1c(N)ccc2c1-c1ccccc1C2 | 4.83
7 | Cc1ccc(N)cc1-c1cc([NH3+])ccc1C | 3.8
8 | Nc1cccc2cnccc12 | 5.59
9 | CNC(C)Cc1ccccc1 (configuration not stated) | 9.87
10 | CCCCCCCN | 10.3
11 | COc1cc(NS(C)(=O)=O)ccc1-c1cn2cccnc2n1 | 4.17
12 | COc1cc(C)ncn1 | 3.65
13 | C[n+]1c([O-])c([O-])nc2ccccc21 | 9.74
14 | CC(C)(S)CN | 8.48
15 | C=C[C@]1(O)CN2CC[C@H]1C[C@@H]2[C@@H](O)c1ccnc2ccc(OC)cc12 | 7.24
16 | C[NH+]1CCC[C@H]1c1cccnc1 | 3.16
17 | COC(=O)CN | 7.64
18 | Cc1nnc(N)nc1C | 3.71
19 | Oc1ccc2ncccc2c1 | 5.26
20 | Cc1cc(-c2ccccc2)nn(C)/c1=N/CCN1CCOCC1 | 10.4
21 | c1cncc(-c2ccc[nH]2)c1 | 4.32

Row | Structure (SMILES) | pKa
22 | OC[C@@H]1O[C@H](n2cnc3ccccc32)[C@@H](O)[C@H](O)[C@H]1O | 4.01
23 | CN(C)C1CC(C)(C)[NH2+]C(C)(C)C1 | 7.67
24 | O/N=C/c1ccccn1 | 3.4
25 | COc1ccc(C(N)=O)cc1 | -1.6
26 | Cn1ccc(=N)c2ccccc21 | 12.4
27 | C[C@@H](Cc1ccccc1)N(C)C | 9.4
28 | Cc1nc2cncnc2nc1C | 2.93
29 | O=C([O-])C1CCCN1 (configuration not stated) | 10.6
30 | COc1cccnn1 | 2.52
31 | COc1cccc(CN)c1OC | 9.41
32 | CC1=NCCc2c1[nH]c1ccc([N+](=O)[O-])cc21 | 6.37
33 | C[C@]1(O)CCCC[C@@H]1N | 9.49
34 | C[NH+](C)CCCCNc1c2ccccc2nc2cccc([N+](=O)[O-])c12 | 6.9
35 | N#Cc1cncc2ccccc12 | 2.04
36 | c1ccc(-c2ccco2)nc1 | 4.18
37 | c1ccc2nnccc2c1 | 2.29
38 | CCN(CC)CCCNc1c2ccccc2[nH+]c2ccccc12 | 8.53
39 | O=C1C[C@@H]2OCC=C3CN4CC[C@@]56c7ccccc7N1[C@H]5C2[C@@]3(S(=O)(=O)[O-])C[C@H]46 (some centres not stated) | 7.53
40 | Nc1nc(N)c2cn[nH]c2n1 | 5.58
41 | Oc1ccc2c(cnc3ccccc32)c1 | 4.39
42 | CN1[C@@H]2CC[C@H]1C[C@H](O)C2 | 10.3

Row | Structure (SMILES) | pKa
43 | CN(C)CC#N | 4.5
44 | COc1ccc(-c2ncc(-c3ccc(N)cc3)o2)cc1 | 3.71
45 | C1CCN2CCCCN2C1 | 6.79
46 | CCOC(=O)C1CN2CCC1CC2 (configuration not stated) | 9.64
47 | O=P([O-])([O-])C(NCc1cccnc1)c1ccccc1[O-] (configuration not stated) | 12.2
48 | CN(C)CCCN(C)CCCN(C)C | 10
49 | C1CNCCSCC[NH2+]C1 | 3.23
50 | CC(=O)NC(Cc1c[nH]cn1)C(=O)[O-] (configuration not stated) | 7.11
51 | CN(C)CCNCC[NH+](C)C | 8.96
52 | C1CNCCNCCCNCCNC1 | 11.1
53 | Cc1cccc(C)c1N | 3.84
54 | NC(=O)C([NH3+])Cc1c[nH]cn1 (configuration not stated) | 5.78
55 | NCC(N)=S | 7.27
56 | N[C@H]1CCCC[C@H]1C(=O)Oc1ccc([N+](=O)[O-])cc1 | 8.42
57 | C1CNC1 | 11.3
58 | NC(=O)CCCCc1cccnc1 | 5.6
59 | NCCc1ccc(Br)cc1 | 9.65
60 | COc1ccc2nccc(C(O)C3CCCC[NH2+]3)c2c1 (configuration not stated) | 4.34
61 | COc1ccncn1 | 2.5
62 | COc1cc(S(C)=O)ccc1-c1cn2ccnc(OC)c2n1 (configuration not stated) | 2.46
